The values that follow come from patent publication EP1222921B1, “Pharmaceutical compositions of tizoxanide and/or nitazoxanide” (Romark Laboratories, L.C., priority 1997, dated 1998).

Broadly, the inhibition is the change of the read-out against control, counted positive when it falls. The MIC is the least concentration at which growth counts as inhibited. The low end stands for inhibition by little substance, the high end for a need for much substance.

The test system of assay [1] is immature (4-week/old) F. gigantica. The assay is described as follows: Experimentally infected rabbits, immature flukes. It is filed as in vivo, Fasciola gigantica. The protocol: Nitazoxanide was tested against immature and mature Fasciola gigantica in experimentally infected rabbits. Fasciola gigantica encysted metacercariae (EMC) were collected on cellophane sheet after 28-35 days from infection of L. calludi snails by Fasciola gigantica miracidium using the technique described by […] snails were exposed daily to artificial light, for 30 minutes, in clean dechlorinated tap water. The resulting encysted […]) were preserved at 4°C in a refrigerator for 5 to 8 days under the surface of water until they were used to infect experimental animals. Forty (40) Boscat rabbits, weighting 1.5 to 2 kg each, were included in the study and allocated to two treatment groups of 20 animals. Animals from Group 1 were orally infected with 35-40 encysted […] wrapped in a leaf of lettuce and pushed on the root of the tongue of the animals. The mouths of the animals were held closed by hand until the encysted metacercariae were swallowed. These Group 1 animals were used to test the efficacy of nitazoxanide against immature stages (4-5 weeks old) of Fasciola […]. Ten animals from Group 1 received 35 mg of nitazoxanide, morning and evening, for 7 consecutive days 4 weeks after their infection at the immature stage of the parasite cycle. The ten remaining animals in Group 1 were kept as untreated controls. All animals were fed with dry ration until the end of the experiment. Seven days after administration of the last dose of nitazoxanide, all rabbits from each group were sacrificed. The surface of the liver was examined for the presence of necrotic migrating furrows especially at the immature stage of the parasite cycle. These necrotic areas were examined using two surgical needles in order to extract the juvenile migrating flukes according to the technique described by El-Bahy. The livers were sliced in small pieces especially around the migrating furrows and macerated under a microscope in order to extract the existing flukes. The abdominal cavity and the visceral surfaces were washed with warm water. The water was then collected, sieved and examined for identification of juvenile flukes. All the collected parasites as well as parts of them were counted in both treated and untreated animal in both Groups 1 and 2. […] The efficacy of nitazoxanide was calculated by using the formula indicated below: % efficacy(a - b)/(a)x 100 [formula] Where: • a = the number of flukes recovered from feces in the control animals • b = the number of flukes recovered from feces in the treated animals.

For the next assay, the system named is C. parvum oocysts. The assay is described as follows: Intact C. parvum oocyst assay (Example II), immunofluorescence. It is filed as cell-based, Cryptosporidium parvum. How it is done: Nitazoxanide was dissolved in sterile dimethylsulfoxide (DMSO) and tested against intact C. parvum oocysts infected cell monolayers at concentrations of 100 µg/ml, 10 µg/ml/l µg/ml and 0.1 µg/ml. A second trail was performed which tested nitazoxanide at the additional concentrations of 20, 2, 0.2 and 0.02 µg/ml. These concentrations were achieved by serial dilutions with complete DMEM medium to yield a final DMSO concentration of 0.5%. The medium control also contacted 0.5% DMSO.
The experiment used a cell culture of MDBKF5D2 Cells grown in 7 mm chambers, and as Cryptosporidium parvum: GCH1 oocysts, 5 X 10^4 per well, and was conducted to compare paromomycin (positive control) against nitazoxanide (experimental drug). Materials included Immune Anti-Cryptosporidium parvum Sporozoite Rabbit Serum (0.1%) and Fluorescein-Conjugated Goat Anti-Rabbit Antibody (1%).
5 x 104 C. parvum oocysts per well were incubated in nitazoxanide (100, 20, 10, 2, 1, 0.2, 0.1 and 0.02 µg/ml) at 37°C (8% CO2) on confluent MDBKF5D2 cell monolayers. The level of infection in each well was determined and analyzed by an immunofluorescence assay at 24 to 48 hours. Percent Inhibition was calculated by subtracting the mean parasite count/10 field in the drug test wells from the mean parasite count/10 fields in the medium control (no drug), dividing by the medium control count, and then multiplying by 100. (Medium control count - Drug test count)/(Medium control count)x 100 [formula]

The next assay has as its system S. mansoni. The settings on record: posttreatment positive egg-counts; report by Abaza et al.; cited from earlier work.
Assay [2] relates to M. intracellular ATCC 13950. Briefly: MIC by standard agar dilution. It is filed as cell-based, Mycobacterium intracellular. The settings on record: Mycobacterium, ATCC13950, 504 h, Middlebrook 7H11 agar, 3 weeks. For orientation: Agar dilution tests growth on a series of plates holding different concentrations.
The mark [3] stands for this setting: mean of 10 rabbits, 70 mg/day for 7 consecutive days.

≈ marks a conversion by molar mass, not a printed value. Where “and” joins values, the source holds several entries; their conditions need not be identical. Identical values can stand only once.

As to `CC(=O)Oc1ccccc1C(=O)Nc1ncc([N+](=O)[O-])s1` [Nitazoxanide, 2-(acetolyloxy)-N-(5-nitro 2-thiazoly) benzamide], the overall efficacy entry in assay [1] (70 mg/day dose for 7 consecutive days) is recorded as “moderately effective”. Moreover, in assay [1] (individual rabbits No. 1-10, 35 mg morning and evening for 7 consecutive days, 4 weeks after infection), the “No. of flukes extracted from liver of Treated Rabbits” value was 3 (5×) and 4 (4×) and 2. The Efficacy % in assay [1] (individual rabbits No. 1-10 versus untreated control, 35 mg morning and evening for 7 consecutive days) was 50% (4×) and 40% (3×) and 42% (2×) and 60%. Besides, the “Efficacy %, Mean (means percentage of reduction)” value in assay [1] (setting [3]) came to 46.77%. In addition, the “No. of flukes extracted from liver of Treated Rabbits, Mean” value in assay [1] (setting [3]) was found to be 3.3. The “percentage of reduction, range” value in assay [1] (range over 10 rabbits, 70 mg/day for 7 consecutive days) is 40-60%. Besides, in the assay on C. parvum oocysts (Cryptosporidium parvum, Trial 1: 24 hrs, 0.1µg/ml, read-out: Percent Inhibition), the inhibition at 0.1 µg/mL is 51.8%. Further, the inhibition at 1 µg/mL in the assay with C. parvum oocysts (Cryptosporidium parvum, Trial 1: 24 hrs, 1µg/ml, read-out: Percent Inhibition) is 77.2%. Moreover, the inhibition at 10 µg/mL with C. parvum oocysts (Cryptosporidium parvum, Trial 1: 24 hrs, 10µg/ml, read-out: Percent Inhibition) was determined as 94.4%. The inhibition at 0.02 µg/mL in the assay with C. parvum oocysts (Cryptosporidium parvum, Trial 2: 48 hrs, 0.02µg/ml, read-out: Percent Inhibition) was 53.3%. Also, the inhibition at 0.2 µg/mL with C. parvum oocysts (Cryptosporidium parvum, Trial 2: 48 hrs, 0.2µg/ml, read-out: Percent Inhibition) is 54.3%. Also, the inhibition at 2 µg/mL in the assay with C. parvum oocysts (Cryptosporidium parvum, Trial 2: 48 hrs, 2µg/ml, read-out: Percent Inhibition) was found to be 94.9%. Further, the inhibition at 20 µg/mL in the assay on C. parvum oocysts (Cryptosporidium parvum, Trial 2: 48 hrs, 20µg/ml, read-out: Percent Inhibition) came out at 96.9%. In addition, the “Mean (+ SD) Parasite Count/10 Fields” value is 474.5(±29.5) in the assay with C. parvum oocysts (Trial 1: 24 hrs, 0.1µg/ml); 224.5(±28.5) with C. parvum oocysts (Trial 1: 24 hrs, 1µg/ml); 55.5(±13.5) with C. parvum oocysts (Trial 1: 24 hrs, 10µg/ml); 1041(+191.46) in the assay with C. parvum oocysts (Trial 2: 48 hrs, 0.02µg/ml); 1020(+158.48) in the assay on C. parvum oocysts (Trial 2: 48 hrs, 0.2µg/ml); 113.75(+21.36) in the assay with C. parvum oocysts (Trial 2: 48 hrs, 2µg/ml). Moreover, the “Mean (+ SD) Parasite Count/10 Fields” value in the assay with C. parvum oocysts (Trial 2: 48 hrs, 20µg/ml) was 68.75(+13.77). In the assay on S. mansoni, the efficacy in patients entry was “not effective”. For the same compound, in assay [2], it took 2 µg/mL (≈ 6.51 µM) to inhibit growth (MIC).
